Source: patent US7476380B2, “Methods for treating illnesses of the tracheo-bronchial tract, especially chronic obstructive pulmonary disease (COPD)” (GSE-Forschungszentrum fur Umwelt und Gesundheit GmbH, priority 2000, dated 2009)

Key:
[1] = tested on: enzymes having gelatinase activities; conditions: Park and Kim, Mol. Cells 1999; cited from earlier work
metalloproteases = conditions: rat osteoblasts; Overall 1995; cited from earlier work
MMP-9 [2] = assay: MMP-9 expression in blood monocytes (PBMCs); format: cell-based, human
Experimental: (§1) • RPMI 1640 (Biochrom # F1415, Berlin), L-glutamine 2 mM (Gibco # 25030-024), penicillin 200 U/ml, streptomycin 200 μg/ml (Gibco # 15140-114), non-essential amino acids (NEAA) 1-2x (Gibco # 11140-35), OPI supplement (contains oxalacetate, Na pyruvate and insulin) 10 ml per 1 liter (Sigma # O-5003). Following filtration through a Gabro ultrafilter U 2000 (Martinsried, Germany) to remove LPS addition of 10% FCS, LPS tested. • Costar low attachment 24 well plates # 3473 (Bodenheim, Germany) 1×10^6 BAL cells (=cells obtained by brocho-alveolar lavage containing alveolar macrophages in an amount of about 80%) or 1.5×10^6 PBMCs (=peripheral blood mononuclear cells isolated via LymphoPrep gradient (Nycomed, Norway)), respectively, in a volume of 1 ml were used per sample. Pretreat the 24 well low attachment cell culture plate according to the manufacturer's instructions. For this purpose, fill the respective wells with 1 ml of medium and incubate for 20 min at 37° C. in an incubator. Afterwards remove the medium and replace by cell suspension. Add the liposomes loaded with vitamin A in a final concentration of 5×10^−6 M. Prepare parallel samples with pure vitamin A and empty liposomes as controls. For the measurement of MMP-9 and TIMP-1 in the culture supernatant and for determination of mRNA expression incubate the cells in an incubator for three days at 37° C. […]

TIMP-1 [3] = assay: TIMP-1 in culture supernatant of alveolar macrophages (BAL cells), ELISA; format: cell-based; conditions: human alveolar macrophages; for TIMP-1 expression: 5 μM final, day 3 (day 4 the same), culture supernatant
Experimental: (§2) For this purpose, human alveolar macrophages (AMs) were obtained via bronchial lavage. The AMs were seeded into Mono Mac 6 medium+10% FCS onto a 24 well “low attachment” plate (Costar) using 1×10^6 cells in a volume of 1 ml per each sample. Additions of vitamin A liposomes or of the pure substances, respectively, were carried out. Cells for RT-PCR or culture supernatant for protein determinations by means of ELISA, respectively, were harvested from parallel samples each on day 1, day 3, and day 4. Specifically, the following samples were prepared: • β=control sample, AMs in medium only • Lipleer=empty liposomes • LipVitA=liposomes containing vitamin A (retinoic acid, Sigma R-2625) 5 μM final • VitA=pure vitamin A (retinoic acid, Sigma R-2625) 5 μM final • LipPalm=liposomes containing all-trans retinol palmitate (Sigma R-3375) 3 μM final • Palmitat=all-trans retinol palmitate (Sigma R-3375) 3 μM final
(§3) The culture supernatants were monitored for MMP-9 and TMP-1 content using commercial ELISA kits (Amersham Pharmacia). In each case the numerals refer to ng/ml culture supernatant based on 1×10^6 cells.
(§4) • RPMI 1640 (Biochrom # F1415, Berlin), L-glutamine 2 mM (Gibco # 25030-024), penicillin 200 U/ml, streptomycin 200 μg/ml (Gibco # 15140-114), non-essential amino acids (NEAA) 1-2x (Gibco # 11140-35), OPI supplement (contains oxalacetate, Na pyruvate and insulin) 10 ml per 1 liter (Sigma # O-5003). Following filtration through a Gabro ultrafilter U 2000 (Martinsried, Germany) to remove LPS addition of 10% FCS, LPS tested. • Costar low attachment 24 well plates # 3473 (Bodenheim, Germany) 1×10^6 BAL cells (=cells obtained by brocho-alveolar lavage containing alveolar macrophages in an amount of about 80%) or 1.5×10^6 PBMCs (=peripheral blood mononuclear cells isolated via LymphoPrep gradient (Nycomed, Norway)), respectively, in a volume of 1 ml were used per sample. Pretreat the 24 well low attachment cell culture plate according to the manufacturer's instructions. For this purpose, fill the respective wells with 1 ml of medium and incubate for 20 min at 37° C. in an incubator. Afterwards remove the medium and replace by cell suspension. Add the liposomes loaded with vitamin A in a final concentration of 5×10^−6 M. Prepare parallel samples with pure vitamin A and empty liposomes as controls. For the measurement of MMP-9 and TIMP-1 in the culture supernatant and for determination of mRNA expression incubate the cells in an incubator for three days at 37° C. Afterwards resuspend the cells carefully and first remove 2×10^4 cells per PCR lysate for lysis in 200 μl of RNAclean (AGS, Heidelberg, Germany)in an Eppendorf reaction vial. Store these PCR lysates at −20° C. until further use. Transfer the remaining cell suspension into an Eppendorf vial and centrifuge for 5 min at 14,000×g. Remove the supernatant, transfer into a fresh vial and store at −80° C. until measurement. Summary of the Samples: • 1. BAL cells or PBMCs, respectively without any addition • 2. BAL cells or PBMCs, respectively + empty liposomes • 3. BAL cells or PBMCs, respectively + liposomes vitA 5 μM final • 4. BAL cells or PBMCs, respectively pure vitA 5 μM final Determinations of MMP-9 and TIMP-1 on the Protein Level by ELISA
(§5) For the measurement of MMP-9 and TIMP-1 in cell culture supernatants commercially available ELISA kits of Amersham Pharmacia Biotech company (Freiburg, Germany) are used. […]

TMP-1 = conditions: rat osteoblasts, depending on the dose; Overall 1995; cited from earlier work
TIMP-1 [4] = assay: TIMP-1 expression in blood monocytes (PBMCs); format: cell-based, human
Experimental: as §1

MMP-9 [5] = assay: MMP-9 in culture supernatant of alveolar macrophages (BAL cells), ELISA; format: cell-based; conditions: human alveolar macrophages; for MMP-9 expression: 5 μM final, day 3 (day 4 the same), culture supernatant
Experimental: as §2, §3, §4, §5

MMP-9/TIMP-1 = MMP-9/TIMP-1 ratio of alveolar macrophages (BAL cells); format: cell-based, human; conditions: day 3
From the text: There is increasing evidence that disorders in the protease/protease inhibitor equilibrium are the cause underlying the pathogenesis of chronic lung diseases. […] This is particularly true for patients suffering from chronic obstructive bronchitis (COPD). Among the MMPs in COPD, it is particularly the secretion of MMP-9 metalloprotease which is increased in the airways and alveoles and can no longer be completely neutralized by its natural antagonist TIMP-1 (tissue inhibitor of metalloprotease). […] An important criterion to determine the degree of the disturbance of the protease/antiprotease equilibrium is the proteinase-to-inhibitor ratio: MMP-9/TIMP-1.
For this purpose, human alveolar macrophages (AMs) were obtained via bronchial lavage. The AMs were seeded into Mono Mac 6 medium+10% FCS onto a 24 well “low attachment” plate (Costar) using 1×10^6 cells in a volume of 1 ml per each sample. Additions of vitamin A liposomes or of the pure substances, respectively, were carried out. Cells for RT-PCR or culture supernatant for protein determinations by means of ELISA, respectively, were harvested from parallel samples each on day 1, day 3, and day 4. […]
The culture supernatants were monitored for MMP-9 and TMP-1 content using commercial ELISA kits (Amersham Pharmacia). […]

TIMP = conditions: Heath et al. 1990; cited from earlier work
[6] = day 1 following vitamin A addition

Compound | activity of enzymes having gelatinase activities (metalloproteases) [1] | expression of metalloproteases (metalloproteases) | expression of MMP-9 metalloprotease (MMP-9 [2]) | TIMP-1 expression (TIMP-1 [3]) | TIMP-1 expression (TIMP-1 [3]; listed as retinoic acid) | mRNA levels of TMP-1 (TMP-1) | TIMP-1 inhibitor expression (TIMP-1 [4]) | MMP-9 expression (MMP-9 [5]) | MMP-9 expression (MMP-9 [5]; listed as retinoic acid) | TIMP-1 on the protein level, day 1 (TIMP-1 [3]; [6]) | effect on the MMP-9/TIMP-1 ratio (MMP-9/TIMP-1) | MMP-9 on the protein level, day 1 (MMP-9 [5]; [6]) | TIMP levels (TIMP)
CC1=C(/C=C/C(C)=C/C=C/C(C)=C/C(=O)O)C(C)(C)CCC1 [free vitamin A, all-trans retinoic acid] | increased | increases | clear inhibition | increase | stimulation | clearly reduced | stimulation | strongly reduced | clear inhibition | – | – | – | –
vitamin A | – | – | – | significantly stimulates | – | – | – | significantly inhibits | – | no effect | drastic effect | no effect | –
CC1=C(/C=C/C(C)=C/C=C/C(C)=C/CO)C(C)(C)CCC1 [retinol] | – | – | clear inhibition | stimulation | – | – | stimulation | clear inhibition | – | – | – | – | 0
